Assay [1] addresses cAMP-dependent protein kinase catalytic subunit beta (Homo sapiens) (UniProt P22694). The following applies: at 10 µM.
Assay [2] has as its target Serine/threonine-protein kinase PAK 6 (Homo sapiens) (UniProt Q9NQU5). The assay can be described thus: Selectivity interaction (KinomeScan (DiscoverX)) EUB0000607a PAK6. Particulars: at 10 µM.
Assay [3] deals with T1, cGMP-dependent protein kinase 1 (Homo sapiens) (UniProt Q13976).
T1 sequence (whole entry): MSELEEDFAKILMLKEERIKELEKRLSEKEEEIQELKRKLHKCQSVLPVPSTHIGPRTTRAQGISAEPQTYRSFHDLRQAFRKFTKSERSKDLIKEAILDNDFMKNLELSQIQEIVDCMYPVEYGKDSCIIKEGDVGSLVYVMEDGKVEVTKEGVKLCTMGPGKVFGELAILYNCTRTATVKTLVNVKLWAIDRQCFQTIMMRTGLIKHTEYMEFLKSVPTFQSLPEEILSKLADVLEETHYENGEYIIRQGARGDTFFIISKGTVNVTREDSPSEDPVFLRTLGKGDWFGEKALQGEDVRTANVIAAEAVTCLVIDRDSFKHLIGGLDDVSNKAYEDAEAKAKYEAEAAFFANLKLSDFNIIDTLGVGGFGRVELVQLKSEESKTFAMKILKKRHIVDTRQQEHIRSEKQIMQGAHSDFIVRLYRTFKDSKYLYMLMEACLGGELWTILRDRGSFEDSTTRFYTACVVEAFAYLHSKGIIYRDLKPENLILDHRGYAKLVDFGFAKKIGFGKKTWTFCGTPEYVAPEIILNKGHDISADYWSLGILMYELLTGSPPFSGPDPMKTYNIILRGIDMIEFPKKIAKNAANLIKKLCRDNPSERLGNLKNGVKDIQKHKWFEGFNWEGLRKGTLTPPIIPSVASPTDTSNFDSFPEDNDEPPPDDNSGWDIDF
Description: Selectivity interaction (KinaseProfiler screening (Millipore)) EUB0000601a PRKG1. Particulars: at 3 µM.

Assay [4] concerns the target T2, Protein arginine N-methyltransferase 9 (Homo sapiens) (UniProt Q6P2P2).
T2 sequence (whole entry): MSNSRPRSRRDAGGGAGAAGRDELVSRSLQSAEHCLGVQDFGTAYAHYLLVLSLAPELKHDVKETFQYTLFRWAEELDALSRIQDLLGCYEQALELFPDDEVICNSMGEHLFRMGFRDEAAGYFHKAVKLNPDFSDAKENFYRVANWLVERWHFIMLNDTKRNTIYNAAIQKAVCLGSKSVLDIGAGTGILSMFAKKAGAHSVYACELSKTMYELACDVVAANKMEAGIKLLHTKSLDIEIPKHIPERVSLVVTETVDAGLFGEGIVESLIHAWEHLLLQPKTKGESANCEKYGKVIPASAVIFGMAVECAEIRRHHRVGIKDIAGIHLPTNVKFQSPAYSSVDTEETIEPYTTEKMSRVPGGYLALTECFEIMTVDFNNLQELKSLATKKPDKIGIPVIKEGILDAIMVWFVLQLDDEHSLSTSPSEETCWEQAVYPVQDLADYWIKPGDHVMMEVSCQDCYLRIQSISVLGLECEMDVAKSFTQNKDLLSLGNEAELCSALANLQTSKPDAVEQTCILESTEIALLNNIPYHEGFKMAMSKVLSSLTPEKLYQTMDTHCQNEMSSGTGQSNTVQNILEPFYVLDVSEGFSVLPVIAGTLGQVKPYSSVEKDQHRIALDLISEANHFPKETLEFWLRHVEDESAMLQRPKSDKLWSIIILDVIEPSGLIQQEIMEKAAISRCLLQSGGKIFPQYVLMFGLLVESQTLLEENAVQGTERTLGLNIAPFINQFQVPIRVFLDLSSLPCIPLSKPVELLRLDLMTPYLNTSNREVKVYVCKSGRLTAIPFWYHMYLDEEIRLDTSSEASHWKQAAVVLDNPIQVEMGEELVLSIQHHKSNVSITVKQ
Particulars: at 1 µM.

The test system of assay [5] is Epidermal growth factor receptor (Homo sapiens), P00533 [UNDEFINED MUTATION]. The assay can be described thus: Selectivity interaction (Ambit KINOMEscan and KiNATiv profiling in Jurkat cells) EUB0000090b EGFR. Particulars: at 1 µM. It is filed as cell-based.
For assay [6], the target named is Mitotic checkpoint serine/threonine-protein kinase BUB1 (Homo sapiens, UniProt O43683).
Assay [7] addresses Sodium-dependent serotonin transporter (Homo sapiens, UniProt P31645). The assay can be described thus: Selectivity interaction (Serotonin transporter site assay, human recombinant ) EUB0000877a SLC6A4.
Assay [8] concerns the target T3, Inhibitor of nuclear factor kappa-B kinase subunit epsilon (Homo sapiens) (UniProt Q14164).
T3 sequence (whole entry): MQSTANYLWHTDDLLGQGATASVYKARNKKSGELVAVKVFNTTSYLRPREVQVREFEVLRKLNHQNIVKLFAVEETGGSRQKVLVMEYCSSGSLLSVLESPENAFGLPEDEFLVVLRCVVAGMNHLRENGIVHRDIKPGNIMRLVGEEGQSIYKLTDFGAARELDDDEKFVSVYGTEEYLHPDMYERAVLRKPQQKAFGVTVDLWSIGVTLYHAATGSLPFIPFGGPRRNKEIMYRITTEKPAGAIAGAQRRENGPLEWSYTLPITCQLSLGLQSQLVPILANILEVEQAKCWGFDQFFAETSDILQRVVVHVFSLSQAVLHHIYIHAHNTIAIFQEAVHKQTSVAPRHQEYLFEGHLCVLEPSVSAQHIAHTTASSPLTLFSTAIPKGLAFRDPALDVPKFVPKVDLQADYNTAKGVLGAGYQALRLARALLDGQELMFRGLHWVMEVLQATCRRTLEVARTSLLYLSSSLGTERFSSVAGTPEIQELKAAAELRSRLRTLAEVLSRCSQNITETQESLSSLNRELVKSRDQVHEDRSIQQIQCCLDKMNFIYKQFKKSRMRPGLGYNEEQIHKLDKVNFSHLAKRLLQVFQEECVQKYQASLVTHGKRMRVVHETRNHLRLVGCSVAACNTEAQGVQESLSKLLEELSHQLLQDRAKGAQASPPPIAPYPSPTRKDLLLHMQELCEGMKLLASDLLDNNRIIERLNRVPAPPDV
Description: Selectivity interaction (KinomeScan (DiscoverX)) EUB0000618a IKBKE. The following applies: at 10 µM.

Assay [9] deals with Protein kinase C delta type (Homo sapiens) (UniProt Q05655). The assay can be described thus: Selectivity interaction (KinomeScan (DiscoverX)) EUB0000229b PRKCD. The following applies: at 10 µM.

The structures appear in SMILES notation.

Sodium-dependent serotonin transporter, sequence (P31645 whole entry): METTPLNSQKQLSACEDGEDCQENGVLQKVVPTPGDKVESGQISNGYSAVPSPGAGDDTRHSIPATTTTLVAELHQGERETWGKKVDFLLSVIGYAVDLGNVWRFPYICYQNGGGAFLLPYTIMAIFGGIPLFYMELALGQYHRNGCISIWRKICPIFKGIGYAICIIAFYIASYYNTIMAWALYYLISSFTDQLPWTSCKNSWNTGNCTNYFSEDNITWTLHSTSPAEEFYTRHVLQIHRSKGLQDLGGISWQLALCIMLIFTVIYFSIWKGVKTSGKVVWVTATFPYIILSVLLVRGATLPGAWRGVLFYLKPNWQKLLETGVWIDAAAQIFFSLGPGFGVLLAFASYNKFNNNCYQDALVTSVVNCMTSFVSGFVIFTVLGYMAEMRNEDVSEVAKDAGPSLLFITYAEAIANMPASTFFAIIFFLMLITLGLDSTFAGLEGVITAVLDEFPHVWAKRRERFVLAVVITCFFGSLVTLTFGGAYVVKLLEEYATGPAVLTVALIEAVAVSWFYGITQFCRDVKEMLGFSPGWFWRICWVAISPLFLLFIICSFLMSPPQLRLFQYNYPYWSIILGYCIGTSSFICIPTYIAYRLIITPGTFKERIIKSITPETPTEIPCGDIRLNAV
Protein kinase C delta type (Homo sapiens), sequence (Q05655 whole entry, looked up): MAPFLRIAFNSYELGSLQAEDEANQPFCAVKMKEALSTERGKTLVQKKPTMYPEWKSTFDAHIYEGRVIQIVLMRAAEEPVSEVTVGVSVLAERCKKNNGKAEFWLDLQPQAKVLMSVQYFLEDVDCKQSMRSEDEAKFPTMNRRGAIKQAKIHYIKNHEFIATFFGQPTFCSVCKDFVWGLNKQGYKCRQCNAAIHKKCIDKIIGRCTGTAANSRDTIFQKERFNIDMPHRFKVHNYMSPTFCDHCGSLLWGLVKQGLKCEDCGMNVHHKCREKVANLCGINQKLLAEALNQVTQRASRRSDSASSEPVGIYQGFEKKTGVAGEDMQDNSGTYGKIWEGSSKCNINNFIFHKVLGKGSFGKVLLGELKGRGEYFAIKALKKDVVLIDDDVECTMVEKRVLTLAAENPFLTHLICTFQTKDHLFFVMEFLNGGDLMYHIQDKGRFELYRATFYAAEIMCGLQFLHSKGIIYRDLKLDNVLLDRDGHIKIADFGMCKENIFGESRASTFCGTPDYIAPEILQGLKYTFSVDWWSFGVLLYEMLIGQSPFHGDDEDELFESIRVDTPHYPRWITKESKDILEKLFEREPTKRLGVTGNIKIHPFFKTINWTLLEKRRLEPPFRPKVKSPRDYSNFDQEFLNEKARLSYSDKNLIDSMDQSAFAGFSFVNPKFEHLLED
Serine/threonine-protein kinase PAK 6 (Homo sapiens), sequence (Q9NQU5 whole entry, looked up): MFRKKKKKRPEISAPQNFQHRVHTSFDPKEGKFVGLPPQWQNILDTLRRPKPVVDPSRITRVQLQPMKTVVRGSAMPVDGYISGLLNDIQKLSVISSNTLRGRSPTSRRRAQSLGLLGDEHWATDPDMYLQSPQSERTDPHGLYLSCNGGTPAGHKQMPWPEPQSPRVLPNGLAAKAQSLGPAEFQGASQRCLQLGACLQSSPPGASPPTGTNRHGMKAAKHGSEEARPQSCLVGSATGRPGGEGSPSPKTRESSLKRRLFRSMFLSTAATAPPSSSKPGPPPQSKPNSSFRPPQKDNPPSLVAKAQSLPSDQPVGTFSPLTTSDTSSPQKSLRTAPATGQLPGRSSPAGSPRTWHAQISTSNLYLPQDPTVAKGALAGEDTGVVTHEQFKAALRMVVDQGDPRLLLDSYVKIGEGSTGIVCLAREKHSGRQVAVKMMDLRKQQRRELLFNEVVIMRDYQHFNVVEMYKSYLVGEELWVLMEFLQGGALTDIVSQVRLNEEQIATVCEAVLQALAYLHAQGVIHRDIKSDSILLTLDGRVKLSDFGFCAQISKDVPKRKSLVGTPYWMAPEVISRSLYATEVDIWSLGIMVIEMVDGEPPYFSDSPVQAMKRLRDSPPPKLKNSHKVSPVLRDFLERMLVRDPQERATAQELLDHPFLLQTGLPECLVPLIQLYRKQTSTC
Epidermal growth factor receptor (Homo sapiens), P00533 [UNDEFINED MUTATION], sequence (P00533 whole entry, looked up, change not shown): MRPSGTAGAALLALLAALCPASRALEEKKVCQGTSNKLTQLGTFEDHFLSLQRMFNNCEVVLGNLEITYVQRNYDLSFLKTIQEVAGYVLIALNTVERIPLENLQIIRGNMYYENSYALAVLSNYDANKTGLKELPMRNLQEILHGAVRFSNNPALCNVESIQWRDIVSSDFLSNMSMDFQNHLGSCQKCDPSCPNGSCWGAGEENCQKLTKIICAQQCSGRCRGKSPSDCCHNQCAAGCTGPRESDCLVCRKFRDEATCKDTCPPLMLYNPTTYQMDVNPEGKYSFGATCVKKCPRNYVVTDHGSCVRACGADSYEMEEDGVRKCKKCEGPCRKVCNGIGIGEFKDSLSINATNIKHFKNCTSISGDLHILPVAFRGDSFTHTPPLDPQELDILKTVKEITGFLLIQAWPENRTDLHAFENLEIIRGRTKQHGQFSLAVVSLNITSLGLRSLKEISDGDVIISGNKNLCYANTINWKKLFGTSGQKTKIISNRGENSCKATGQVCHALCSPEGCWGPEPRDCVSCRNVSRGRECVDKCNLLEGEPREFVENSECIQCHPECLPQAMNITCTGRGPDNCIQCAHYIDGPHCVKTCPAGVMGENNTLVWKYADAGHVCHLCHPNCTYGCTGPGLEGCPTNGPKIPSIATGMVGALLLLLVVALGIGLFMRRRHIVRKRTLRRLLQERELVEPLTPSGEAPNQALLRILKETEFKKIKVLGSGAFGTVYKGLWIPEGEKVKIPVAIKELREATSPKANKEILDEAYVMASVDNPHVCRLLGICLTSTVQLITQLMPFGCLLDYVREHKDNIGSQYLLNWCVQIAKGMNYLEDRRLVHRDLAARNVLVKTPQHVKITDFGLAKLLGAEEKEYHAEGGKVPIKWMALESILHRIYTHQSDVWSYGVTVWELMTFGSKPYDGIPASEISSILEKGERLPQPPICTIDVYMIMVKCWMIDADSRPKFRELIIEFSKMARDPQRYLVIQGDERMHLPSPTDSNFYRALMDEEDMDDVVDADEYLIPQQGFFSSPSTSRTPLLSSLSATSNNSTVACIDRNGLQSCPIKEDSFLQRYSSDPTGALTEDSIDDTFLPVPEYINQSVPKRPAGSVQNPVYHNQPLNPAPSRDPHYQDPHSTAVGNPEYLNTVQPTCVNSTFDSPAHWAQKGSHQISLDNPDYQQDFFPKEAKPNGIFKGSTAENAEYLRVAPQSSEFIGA
Mitotic checkpoint serine/threonine-protein kinase BUB1, sequence (O43683 whole entry): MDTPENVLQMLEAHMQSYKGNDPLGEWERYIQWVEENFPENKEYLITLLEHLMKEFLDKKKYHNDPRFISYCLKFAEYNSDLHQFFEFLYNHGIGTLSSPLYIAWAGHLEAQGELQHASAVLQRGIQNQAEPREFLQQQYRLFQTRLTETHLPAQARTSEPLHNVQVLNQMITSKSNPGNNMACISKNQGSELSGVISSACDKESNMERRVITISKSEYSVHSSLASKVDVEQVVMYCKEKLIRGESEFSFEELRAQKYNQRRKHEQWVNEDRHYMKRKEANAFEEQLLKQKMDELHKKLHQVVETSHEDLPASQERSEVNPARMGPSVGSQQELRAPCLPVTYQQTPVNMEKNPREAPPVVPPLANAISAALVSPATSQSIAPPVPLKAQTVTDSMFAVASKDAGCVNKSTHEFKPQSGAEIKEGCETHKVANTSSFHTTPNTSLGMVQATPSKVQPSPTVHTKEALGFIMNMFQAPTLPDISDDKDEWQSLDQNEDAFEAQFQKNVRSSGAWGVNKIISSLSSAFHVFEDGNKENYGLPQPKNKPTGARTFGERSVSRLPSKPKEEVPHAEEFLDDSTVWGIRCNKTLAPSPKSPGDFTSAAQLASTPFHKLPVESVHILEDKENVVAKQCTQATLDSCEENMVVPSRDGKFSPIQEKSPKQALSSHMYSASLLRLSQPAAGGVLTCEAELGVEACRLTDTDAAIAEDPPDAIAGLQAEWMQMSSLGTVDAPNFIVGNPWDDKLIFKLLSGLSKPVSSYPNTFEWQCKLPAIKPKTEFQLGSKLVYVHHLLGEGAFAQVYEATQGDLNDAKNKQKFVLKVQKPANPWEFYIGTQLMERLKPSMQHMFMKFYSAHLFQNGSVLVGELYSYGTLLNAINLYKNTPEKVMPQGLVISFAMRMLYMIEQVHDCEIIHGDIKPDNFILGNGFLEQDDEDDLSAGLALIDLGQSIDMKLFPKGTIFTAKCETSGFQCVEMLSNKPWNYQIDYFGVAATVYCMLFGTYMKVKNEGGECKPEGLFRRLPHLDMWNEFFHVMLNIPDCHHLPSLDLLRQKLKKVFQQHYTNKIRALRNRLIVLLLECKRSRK

As for `CCN(CC)CCCCNc1ncc2cc(-c3cc(OC)cc(OC)c3)c(NC(=O)NC(C)(C)C)nc2n1`, in assay [1], the % of control was 100%.
`CNC(=O)Nc1ccc(-c2nc(N3CC4CCC(C3)O4)c3cnn(C4CCC5(CC4)OCCO5)c3n2)cc1` came in with a % of control in assay [2] of 100%.
Regarding `CCc1cc(Nc2nccc(-c3c(-c4ccc(OC)c(C(=O)Nc5c(F)cccc5F)c4)nc4ccccn34)n2)c(OC)cc1N1CCC(N2CCN(S(C)(=O)=O)CC2)CC1`, the % of inhibition in assay [3] was found to be 41%.
Regarding `CNCCN1CCC(c2cc(CN(C)C(=O)c3cccc(Oc4ccccc4)c3)ccn2)CC1`, in [4], the % activity was more than 90%.
In the case of `CN(C)C/C=C/C(=O)Nc1ccc(C(=O)N2CCCC(Nc3ncc(Cl)c(-c4c[nH]c5ccccc45)n3)C2)cc1` (centres undefined), the % of control in [5] worked out at 77%.
The compound `CCc1cccc(CC)c1NC(=O)c1nn(C)c2c1CCc1cnc(Nc3ccc(C(=O)NC4CCN(C)CC4)cc3OC(F)(F)F)nc1-2` displayed a half-maximal inhibitory concentration (IC50) in [6] of more than 10 µM.
Regarding `CCC(=O)N1CC[C@H](Nc2ncnc3c2CN(c2cnc(OC)c(C(F)(F)F)c2)CC3)C1` [LENIOLISIB], the IC50 in [7] was more than 30 µM.
In assay [8], `O[C@H]1CC[C@H](Nc2ncc3nc(Nc4c(F)cc(F)cc4F)n([C@H]4CCOC4)c3n2)CC1` showed a % of control of 85%.
On to `COc1cc(N(C)c2ccnc3ccc(C(F)(F)F)cc23)cc(OC)c1OC`, for which the % binding in assay [9] came to 95%.

Source of the values: ChEMBL document CHEMBL5465560, “Selectivity Literature for EUbOPEN Chemogenomic Library” (2024).
